Source: US6545131B1, “Tissue specific prodrug” (priority 1997, dated 2003)
Starred links: 1 amine or outer side, 2 acyl side, 3 side chain; linkers in the order of their positions; H or OH if unused. Residues, ends and D or L forms follow the SMILES beside them. *: point of attachment. AMC = Cc1cc(=O)oc2cc(N*)ccc12; Morpholide = C1CN(*)CCO1; CO = O=C([*:1])[*:2]

Columns and labels:
[1] = biological target: T1, PSA (prostate specific antigen) (Homo sapiens, UniProt P07288); test: Cleavage of AMC-labelled peptide substrates by purified PSA (fluorescence of released AMC; Lineweaver-Burke kinetics); format: biochemical; settings: for picomoles of peptide cleaved/min/200 picomoles protease: PSA: pH 7.8, SKLQ, KLQ, LQ in 1.4% acetonitrile/buffer, Q-AMC in 0.2% formic acid/buffer; for Kcat / Km: PSA substrate, PSA assay buffer pH 7.8, Lineweaver-Burke
T1 construct: PSA was purified from human seminal plasma; from tissue; host or cells: human seminal plasma
T1 sequence (P07288 25-261): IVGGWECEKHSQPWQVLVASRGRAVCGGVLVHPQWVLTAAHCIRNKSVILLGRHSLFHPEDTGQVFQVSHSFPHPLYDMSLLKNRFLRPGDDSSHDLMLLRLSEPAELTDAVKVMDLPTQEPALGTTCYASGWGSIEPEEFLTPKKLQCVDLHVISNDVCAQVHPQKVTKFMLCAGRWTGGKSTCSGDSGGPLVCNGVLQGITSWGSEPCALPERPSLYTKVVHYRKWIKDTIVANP
Protocol: (§1) The peptides discussed herein were custom synthesized by Enzyme Systems Products (Dublin, Calif.) and, after HPLC separation and purification to >95%, the molecular weights were confirmed by mass spectroscopy. All peptides had morpholinocarbonyl protecting the amino terminus and 7-amino-4-methylcoumarin (AMC) attached via an amide bond to the carboxyl group of the carboxy-terminal amino acid. Peptides were first dissolved in distilled water (5 mM) and then diluted into PSA assay buffer (50 mM Tris/0.1M NaCl pH 7.8). The glutamine-AMC peptide had the amino terminus and side chain amine unprotected and was obtained from Bachem (Torrance, Calif.).
(§2) PSA was purified from human seminal plasma as described in Christensson, et al. Eur. J. Biochem. 194:755-765, (1990). Plasmin, urokinase, tissue plasminogen activator (TPA), human plasma and porcine pancreatic kallikrein and a 1-antichymotrypsin were obtained from Calbiochem (San Diego, Calif.). All other proteases were obtained from Sigma Chemical Co. (St. Louis, Mo.). Mouse serum was obtained from East Acres Biologicals (South Bridge, Mass.). Goat and calf sera were obtained from Gibco BRL (Grand Island, N.Y.). Rat serum was obtained in-house from sacrificed animals. Human serum was obtained from volunteers.
(§3) Cleavage was studied by measuring fluorescence change secondary to AMC release. Fluorescence detection was carried out with a Fluoroskan II 96 well fluorometric plate reader (ICN Biomedicals, Costa Mesa, Calif.), with excitation wavelength 355 nm and emission wavelength 460 nm. Data were collected and analyzed using Deltasoft III software (Biometallics, Princeton, N.J.). All reactions were performed at room temperature by the addition of substrate and proteases into PSA buffer, described below, in a final volume of 200 μL. The results were determined from the initial linear increase of fluorescence and were expressed as the picomoles of AMC released per minute based upon comparison to a standard curve of the fluorescence of known amounts of AMC (i.e., fluorescence was linear form 20 to 300 picomoles of AMC). The data were analyzed by Lineweaver-Burke reciprocal plots to determine the Michaelis-Menten constant (i.e., Km) expressed as the amount of substrate needed to saturate half of the enzyme and the catalytic rate constant (i.e., kcat) expressed as the amount of substrate converted to product per time per amount of enzyme.
(§4) Each assay contains 200 picomoles of the particular protease and 0.2 mM concentration of the particular substrate (i.e., 40,000 picomoles/200 μL of assay volume). The amino acid sequences expressed in one letter amino acid code represent the following amino acid sequences in the three letter amino acid code: EHSSKLQ (Glu-His-Ser-Ser-Lys-Leu-Gln; SEQ ID NO:10), QNKISYQ (Gln-Asn-Lys-Ile-Ser-Tyr-Gln; SEQ ID NO:11), ENKISYQ (Glu-Asn-Lys-Ile-Ser-Tyr-Gln; SEQ ID NO:12), and ATKSKQH (Ala-Thr-Lys-Ser-Lys-Gln-His; SEQ ID NO:13). Determinations listed in the table were carried out with substrates at 0.2 mM concentration in the PSA assay buffer (50 mM Tris/0.1M NaCl pH 7.8). The entry “UD” stands for “undetectable” and means that at most, 0.1 pmole of substrate cleavage per minute per 200 pmole protease took place. Asterisks represent experiments not performed. Abbreviations are as follows: PSA (prostate specific antigen), Chymo (chymotrypsin), Urokin (urokinase), TPA (tissue plasminogen activator), Thromb (thrombin), Kallik (human kallikrein, hK1).
The data in Table 2 are the results of kinetic experiments with the peptide substrates used in Example 1. Experimental details are found in Example 1.
The amino acid sequences expressed in one letter amino acid code represent the following amino acid sequences in the three letter amino acid code: EHSSKLQ (Glu-His-Ser-Ser-Lys-Leu-Gln; SEQ ID NO:10), HSSKLQ (His-Ser-Ser-Lys-Leu-Gln; SEQ ID NO:7), SKLQ (Ser-Lys-Leu-Gln; SEQ ID NO:1), and ATKSKQH (Ala-Thr-Lys-Ser-Lys-Gln-His; SEQ ID NO:13). […]

Elastase = test: Peptide-AMC cleavage by purified extracellular protease; format: biochemical; settings: 0.2 mM substrate, PSA assay buffer pH 7.8
Protocol: as §1, §2, §3, §4

Plasmin = biological target: T2, Plasmin (Homo sapiens, UniProt P00747); test: as above; format: biochemical; settings: 0.2 mM substrate, PSA assay buffer pH 7.8
T2 construct: purchased Calbiochem
T2 sequence (P00747 581-810 limits assumed, species assumed): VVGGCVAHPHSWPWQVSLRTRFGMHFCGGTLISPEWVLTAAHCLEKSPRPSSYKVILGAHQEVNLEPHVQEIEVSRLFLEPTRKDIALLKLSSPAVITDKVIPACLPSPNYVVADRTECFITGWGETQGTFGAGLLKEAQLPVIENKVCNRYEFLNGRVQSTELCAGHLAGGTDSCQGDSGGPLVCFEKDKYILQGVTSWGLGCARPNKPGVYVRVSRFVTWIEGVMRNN
T2 sequence (P00747 97-580 partner limits assumed, species assumed): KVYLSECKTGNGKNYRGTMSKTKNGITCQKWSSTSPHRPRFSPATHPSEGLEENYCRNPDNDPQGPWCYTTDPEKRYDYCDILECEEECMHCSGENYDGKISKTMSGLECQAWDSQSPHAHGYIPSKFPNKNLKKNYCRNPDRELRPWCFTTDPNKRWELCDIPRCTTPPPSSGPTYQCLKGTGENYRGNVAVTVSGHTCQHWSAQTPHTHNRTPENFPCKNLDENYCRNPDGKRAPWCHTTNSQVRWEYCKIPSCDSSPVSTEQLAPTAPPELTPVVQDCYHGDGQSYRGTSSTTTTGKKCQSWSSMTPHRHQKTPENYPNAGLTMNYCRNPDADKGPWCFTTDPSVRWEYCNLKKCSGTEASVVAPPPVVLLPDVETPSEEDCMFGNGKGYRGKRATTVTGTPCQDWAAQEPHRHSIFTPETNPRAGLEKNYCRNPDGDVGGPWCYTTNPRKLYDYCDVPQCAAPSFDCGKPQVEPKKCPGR
Protocol: as §1, §2, §3, §4

Trypsin = test: as above; format: biochemical; settings: 0.2 mM substrate, PSA assay buffer pH 7.8
Protocol: as §1, §2, §3, §4

chymotrypsin = biological target: T3, chymotrypsin (Bos taurus, UniProt P00766); test: as above; format: biochemical; settings: 0.2 mM substrate, PSA assay buffer pH 7.8
T3 construct: purchased Sigma Chemical Co
Protocol: as §1, §2, §3, §4

human kallikrein, hK1 = test: as above; format: biochemical; settings: 0.2 mM substrate, PSA assay buffer pH 7.8
Protocol: as §1, §2, §3, §4

thrombin = biological target: T4, thrombin (Homo sapiens, UniProt P00734); test: as above; format: biochemical; settings: 0.2 mM substrate, PSA assay buffer pH 7.8
T4 construct: purchased Sigma Chemical Co
Protocol: as §1, §2, §3, §4

[2] = biological target: T5, tissue plasminogen activator (TPA) (Homo sapiens, UniProt P00750); test: as above; format: biochemical; settings: 0.2 mM substrate, PSA assay buffer pH 7.8
T5 construct: purchased Calbiochem
T5 sequence (P00750 36-562, species assumed): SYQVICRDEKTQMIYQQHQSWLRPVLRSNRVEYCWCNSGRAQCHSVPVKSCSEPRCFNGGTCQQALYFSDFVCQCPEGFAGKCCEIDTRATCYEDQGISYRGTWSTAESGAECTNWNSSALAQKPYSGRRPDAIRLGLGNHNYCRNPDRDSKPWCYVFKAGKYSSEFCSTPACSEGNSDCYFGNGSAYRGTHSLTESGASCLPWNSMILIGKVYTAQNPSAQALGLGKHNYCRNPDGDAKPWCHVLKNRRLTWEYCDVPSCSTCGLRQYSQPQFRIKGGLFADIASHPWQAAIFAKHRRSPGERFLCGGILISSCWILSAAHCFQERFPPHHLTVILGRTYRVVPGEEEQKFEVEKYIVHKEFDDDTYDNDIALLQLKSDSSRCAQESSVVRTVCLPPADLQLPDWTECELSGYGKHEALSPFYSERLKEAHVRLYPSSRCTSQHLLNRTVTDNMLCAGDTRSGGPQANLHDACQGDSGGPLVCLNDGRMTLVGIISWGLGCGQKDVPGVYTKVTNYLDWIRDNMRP
Protocol: as §1, §2, §3, §4

urokinase = biological target: T6, urokinase (Homo sapiens, UniProt P00749); test: as above; format: biochemical; settings: 0.2 mM substrate, PSA assay buffer pH 7.8
T6 construct: purchased Calbiochem
Protocol: as §1, §2, §3, §4

[3] = Stability of PSA substrates in serum (AMC release); format: in vitro ADME; settings: 0.2 mM substrate
From the text: as §2, §3
Because the prodrug can be given systemically via the blood, it is useful to determine the stability of the substrates in sera from a variety of species. The substrates and experimental details are found as described in Example 1.
The amino acid sequences expressed in one letter amino acid code represent the following amino acid sequences in the three letter amino acid code: EHSSKLQ (Glu-His-Ser-Ser-Lys-Leu-Gln; SEQ ID NO:10), QNKISYQ (Gln-Asn-Lys-Ile-Ser-Tyr-Gln; SEQ ID NO:11), ENKISYQ (Glu-Asn-Lys-Ile-Ser-Tyr-Gln; SEQ ID NO:12) and ATKSKQH (Ala-Thr-Lys-Ser-Lys-Gln-His; SEQ ID NO:13). Determinations listed in the table were carried out with substrates at 0.2 mM concentration in the PSA assay buffer (50 mM Tris/0.1M NaCl pH 7.8). AMC is 7-amino-4-methylcoumarin. The human serum used was 100% for each assay. The entry “UD” stands for “undetectable”, and means that not more than 0.01 picomole of substrate per minute was cleaved.

Cathepsin B = biological target: T7, Cathepsin B (Homo sapiens, UniProt P07858); test: PSA substrate cleavage by purified intracellular protease; format: biochemical; settings: 0.2 mM substrate, pH 7.8; SKLQ, KLQ, LQ in 1.4% acetonitrile/buffer, Q-AMC in 0.2% formic acid/buffer
T7 construct: purchased Sigma Chemical Co
Protocol: as §3
(§5) A family of peptide substrates based upon the EHSSKLQ (SEQ ID NO:10) sequence was assayed for activity for the intracellular proteases, and the results given in Table 4.
(§6) The amino acid sequences expressed in one letter amino acid code represent the following amino acid sequences in the three letter amino acid code: EHSSKLQ (Glu-His-Ser-Ser-Lys-Leu-Gln; SEQ ID NO:10), The shorter sequences are formed by deleting amino acids from the amino terminal side of the sequence. Determinations listed in the table were carried out with substrates at 0.2 mM concentration in the PSA assay buffer (50 mM Tris/0.1M NaCl pH 7.8), except SKLQ (SEQ ID NO:1), KLQ and LQ, which were carried out in 1.4% acetonitrile/buffer and Q-AMC which was carried out in 0.2% formic acid/buffer, at pH 7.8. The entry “UD” stands for “undetectable” and means that at most, 0.1 pmole of substrate cleavage per minute per 200 pmole protease took place. Asterisks represent experiments not performed. Abbreviations are as follows: PSA (prostate specific antigen), Cath B, C, D (Cathepsins, B, C, D), Esterase (porcine liver esterase).

Cathepsin C = biological target: T8, Cathepsin C (Homo sapiens, UniProt P53634); test: as above; format: biochemical; settings: 0.2 mM substrate, pH 7.8; SKLQ, KLQ, LQ in 1.4% acetonitrile/buffer, Q-AMC in 0.2% formic acid/buffer
T8 construct: purchased Sigma Chemical Co
T8 sequence (P53634 25-463): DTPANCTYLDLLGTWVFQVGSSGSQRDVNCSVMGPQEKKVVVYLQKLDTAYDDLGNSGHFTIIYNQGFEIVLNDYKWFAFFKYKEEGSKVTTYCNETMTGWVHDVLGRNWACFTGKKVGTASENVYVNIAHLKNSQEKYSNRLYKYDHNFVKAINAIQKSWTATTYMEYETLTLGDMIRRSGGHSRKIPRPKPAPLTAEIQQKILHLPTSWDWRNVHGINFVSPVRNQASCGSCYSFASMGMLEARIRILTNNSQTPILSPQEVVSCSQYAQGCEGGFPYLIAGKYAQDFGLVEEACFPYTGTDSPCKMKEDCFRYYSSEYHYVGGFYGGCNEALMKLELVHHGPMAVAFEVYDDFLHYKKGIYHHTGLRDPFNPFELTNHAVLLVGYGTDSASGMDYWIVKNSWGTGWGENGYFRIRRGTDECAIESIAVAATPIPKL
Protocol: as §3, §5, §6

Cathepsin D = biological target: T9, Cathepsin D (Homo sapiens, UniProt P07339); test: as above; format: biochemical; settings: 0.2 mM substrate, pH 7.8; SKLQ, KLQ, LQ in 1.4% acetonitrile/buffer, Q-AMC in 0.2% formic acid/buffer
T9 construct: purchased Sigma Chemical Co
T9 sequence (P07339 65-412): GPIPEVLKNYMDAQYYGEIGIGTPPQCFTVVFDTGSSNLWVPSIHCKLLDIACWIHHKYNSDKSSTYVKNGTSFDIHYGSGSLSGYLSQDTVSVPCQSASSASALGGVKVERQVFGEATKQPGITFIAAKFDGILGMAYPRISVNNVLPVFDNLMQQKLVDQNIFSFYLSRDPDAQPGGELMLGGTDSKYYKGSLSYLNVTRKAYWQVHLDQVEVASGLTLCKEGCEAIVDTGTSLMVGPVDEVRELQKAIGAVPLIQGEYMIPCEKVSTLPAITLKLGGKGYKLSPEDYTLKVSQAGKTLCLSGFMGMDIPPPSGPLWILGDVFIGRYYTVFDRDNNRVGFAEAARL
Protocol: as §3, §5, §6

porcine liver esterase = test: as above; format: biochemical; settings: 0.2 mM substrate, pH 7.8; SKLQ, KLQ, LQ in 1.4% acetonitrile/buffer, Q-AMC in 0.2% formic acid/buffer
Protocol: as §3, §5, §6

CC[C@H](C)[C@H](NC(=O)[C@H](CCCCN)NC(=O)[C@H](CC(N)=O)NC(=O)[C@H](CCC(=O)O)NC(=O)N1CCOCC1)C(=O)N[C@@H](CO)C(=O)N[C@@H](Cc1ccc(O)cc1)C(=O)N[C@@H](CCC(N)=O)C(=O)Nc1ccc2c(C)cc(=O)oc2c1 [ENKISYQ, Glu-Asn-Lys-Ile-Ser-Tyr-Gln] ({Morpholide-CO}-ENKISYQ-{AMC})
Picomoles of substrate cleaved/minute/200 pmoles of indicated protease: PSA ([1]; 0.2 mM substrate, PSA assay buffer pH 7.8, room temperature): 14.4 picomoles/minute/200 pmoles pr
Picomoles of substrate cleaved/minute/200 pmoles of indicated protease: Elastase (Elastase): 2.6 picomoles/minute/200 pmoles pr
Picomoles of substrate cleaved/minute/200 pmoles of indicated protease: Plasmin (Plasmin): 0.6 picomoles/minute/200 pmoles pr
Picomoles of substrate cleaved/minute/200 pmoles of indicated protease: Trypsin (Trypsin): 1.8 picomoles/minute/200 pmoles pr
Picomoles of substrate cleaved/minute/200 pmoles of indicated protease: Chymo (chymotrypsin): 3.6 picomoles/minute/200 pmoles pr
Picomoles of substrate cleaved/minute/200 pmoles of indicated protease: Kallik (human kallikrein, hK1): UD (at most, 0.1 pmole of substrate cleavage per minute per 200 pmole protease took place)
Picomoles of substrate cleaved/minute/200 pmoles of indicated protease: Thromb (thrombin): 0.3 picomoles/minute/200 pmoles pr
Picomoles of substrate cleaved/minute/200 pmoles of indicated protease: TPA [2]: .04 picomoles/minute/200 pmoles pr
Picomoles of substrate cleaved/minute/200 pmoles of indicated protease: Urokin (urokinase): UD (at most, 0.1 pmole of substrate cleavage per minute per 200 pmole protease took place)
picomles AMC released/minute: Calf [3]: UD (not more than 0.01 picomole of substrate per minute was cleaved)
picomles AMC released/minute: Fetal Calf [3]: 9.59 picomoles/minute
picomles AMC released/minute: Goat [3]: 3.18 picomoles/minute
picomles AMC released/minute: Mouse [3]: 3.71 picomoles/minute
picomles AMC released/minute: Rat [3]: 11.2 picomoles/minute
picomles AMC released/minute: Human ([3]; human serum 100%): 1.27 picomoles/minute

Cc1cc(=O)oc2cc(NC(=O)[C@H](CCC(N)=O)NC(=O)[C@H](CC(C)C)NC(=O)[C@H](CCCCN)NC(=O)[C@H](CO)NC(=O)[C@H](CO)NC(=O)[C@H](Cc3c[nH]cn3)NC(=O)N3CCOCC3)ccc12 [HSSKLQ, His-Ser-Ser-Lys-Leu-Gln] ({Morpholide-CO}-HSSKLQ-{AMC})
picomoles of peptide cleaved/min/200 picomoles protease: PSA ([1]; 0.2 mM substrate): 62.7 picomoles/min/200 picomoles pr
Kcat [1]: 0.011 s⁻¹
Km [1]: 470 µM
picomoles of peptide cleaved/min/200 picomoles protease: Cath B (Cathepsin B): 17.3 picomoles/min/200 picomoles pr
picomoles of peptide cleaved/min/200 picomoles protease: Cath C (Cathepsin C): UD (at most, 0.1 pmole of substrate cleavage per minute per 200 pmole protease took place)
picomoles of peptide cleaved/min/200 picomoles protease: Cath D (Cathepsin D): 3.8 picomoles/min/200 picomoles pr
picomoles of peptide cleaved/min/200 picomoles protease: Esterase (porcine liver esterase): UD (at most, 0.1 pmole of substrate cleavage per minute per 200 pmole protease took place)

Cc1cc(=O)oc2cc(NC(=O)[C@H](CCC(N)=O)NC(=O)[C@H](CC(C)C)NC(=O)[C@H](CCCCN)NC(=O)[C@H](CO)NC(=O)N3CCOCC3)ccc12 [SKLQ, Ser-Lys-Leu-Gln] ({Morpholide-CO}-SKLQ-{AMC})
picomoles of peptide cleaved/min/200 picomoles protease: PSA ([1]; 0.2 mM substrate): 29.6 picomoles/min/200 picomoles pr
Kcat [1]: 0.020 s⁻¹
Km [1]: 813 µM
picomoles of peptide cleaved/min/200 picomoles protease: Cath B (Cathepsin B): 31.2 picomoles/min/200 picomoles pr
picomoles of peptide cleaved/min/200 picomoles protease: Cath C (Cathepsin C): UD (at most, 0.1 pmole of substrate cleavage per minute per 200 pmole protease took place)
picomoles of peptide cleaved/min/200 picomoles protease: Cath D (Cathepsin D): 6.4 picomoles/min/200 picomoles pr
picomoles of peptide cleaved/min/200 picomoles protease: Esterase (porcine liver esterase): UD (at most, 0.1 pmole of substrate cleavage per minute per 200 pmole protease took place)
